The results in this text go back to ChEMBL document CHEMBL3351695, “Synthesis of novel 10-hydroxycamptothecin derivatives utilizing topotecan hydrochloride as ortho-quinonemethide precursor” (Bioorg Med Chem, 2015).

Structures can show the parent of a compound that is named as a salt. Calls of active or inactive are those of the source. No cut-off for these calls is given here.

Assay [1] has as its system HepG2. The assay is described as follows: Antiproliferative activity against human HepG2 cells after 48 hrs by CCK8 assay. The conditions noted are these: HepG2, 48 h. It is filed as functional, cell-based. In general terms: Formazan colour is commonly taken as a measure of viable cells.
Assay [2] can be described thus: Antiproliferative activity against human SGC7901 cells after 48 hrs by CCK8 assay. It is filed as functional, cell-based. The conditions noted are these: SGC-7901, 48 h.
Assay [3] concerns the target T1, DNA topoisomerase 1 (Homo sapiens) (UniProt P11387).
T1 sequence (whole entry): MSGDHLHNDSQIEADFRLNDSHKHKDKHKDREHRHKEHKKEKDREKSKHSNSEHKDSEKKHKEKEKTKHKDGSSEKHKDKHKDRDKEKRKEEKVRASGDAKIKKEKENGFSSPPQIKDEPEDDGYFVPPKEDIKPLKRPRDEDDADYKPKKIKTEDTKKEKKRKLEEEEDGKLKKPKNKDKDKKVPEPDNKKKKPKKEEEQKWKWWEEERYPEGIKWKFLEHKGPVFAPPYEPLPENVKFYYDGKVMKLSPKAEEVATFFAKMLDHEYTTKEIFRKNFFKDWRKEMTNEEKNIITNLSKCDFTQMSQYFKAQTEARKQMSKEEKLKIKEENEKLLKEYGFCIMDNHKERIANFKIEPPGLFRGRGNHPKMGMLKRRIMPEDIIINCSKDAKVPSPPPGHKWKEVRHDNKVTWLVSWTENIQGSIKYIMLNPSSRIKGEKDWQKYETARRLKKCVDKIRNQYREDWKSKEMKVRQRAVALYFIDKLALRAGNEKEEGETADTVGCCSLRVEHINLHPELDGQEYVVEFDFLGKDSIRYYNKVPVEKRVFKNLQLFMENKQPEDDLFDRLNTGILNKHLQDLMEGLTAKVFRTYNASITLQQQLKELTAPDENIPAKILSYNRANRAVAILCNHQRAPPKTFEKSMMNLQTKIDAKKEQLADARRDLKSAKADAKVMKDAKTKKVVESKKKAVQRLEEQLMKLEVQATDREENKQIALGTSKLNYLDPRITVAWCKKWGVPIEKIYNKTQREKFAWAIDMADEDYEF
The assay is described as follows: Inhibition of purified Topo 1 (unknown origin)-mediated supercoiled pBR322 DNA cleavage at 12.5 uM after 15 mins by agarose gel electrophoresis.

The nature of assay [4]: Antiproliferative activity against human HCT8 cells after 48 hrs by CCK8 assay. Type of assay: functional, cell-based. Conditions: HCT-8, 48 h.
In assay [5] the test system is KB. The assay is described as follows: Antiproliferative activity against human KB cells after 48 hrs by CCK8 assay. It is filed as functional, cell-based.
Assay [6] relates to SGC-7901. The assay is described as follows: Ratio of 10-hydroxycamptothecin IC50 to compound IC50 for human SGC7901 cells after 48 hrs by CCK8 assay. It is filed as functional.

Regarding `CC[C@@]1(O)C(=O)OCc2c1cc1n(c2=O)Cc2cc3cc(O)ccc3nc2-1` [HYDROXYCAMPTOTHECIN], the IC50 in assay [1] came to 499 nM; in assay [2] it was 835 nM; in assay [4] it was 181 nM; in assay [5] it was 128 nM. Further, the inhibition entry in assay [3] was “Active”.
Regarding `CCOC1CCc2c(ccc3nc4c(cc23)Cn2c-4cc3c(c2=O)COC(=O)[C@]3(O)CC)O1` (some centres not stated), the IC50 worked out at 265 nM in assay [1], 413 nM in assay [2], 401 nM in assay [4] and 1480 nM in assay [5].
On to `CC[C@@]1(O)C(=O)OCc2c1cc1n(c2=O)Cc2cc3c(CSCCC(=O)O)c(O)ccc3nc2-1`, for which the IC50 was 89000 nM in assay [1], 40800 nM in assay [2], 30300 nM in assay [4] and more than 100000 nM in assay [5]. In assay [3], the inhibition entry is “inactive”.
On to `CCN(CC)CCSCc1c(O)ccc2nc3c(cc12)Cn1c-3cc2c(c1=O)COC(=O)[C@]2(O)CC`, for which the IC50 in assay [1] turned out to be 5090 nM; in assay [2], 10400 nM; in assay [4] it was 21900 nM; in assay [5], 32500 nM.
For `CC[C@@]1(O)C(=O)OCc2c1cc1n(c2=O)Cc2cc3c(CSCC(=O)OC)c(O)ccc3nc2-1`, the IC50 in assay [1] was 3200 nM; in assay [2], 9020 nM; in assay [4], 3090 nM; in assay [5], 12900 nM.
On to `CC[C@@]1(O)C(=O)OCc2c1cc1n(c2=O)Cc2cc3c4c(ccc3nc2-1)OC(O)CC4` (some centres not stated), for which the IC50 was 184 nM in assay [1], 536 nM in assay [2], 567 nM in assay [4] and 777 nM in assay [5]. For the same compound, the inhibition entry in assay [3] is “Active”.
On to `CCCSCc1c(O)ccc2nc3c(cc12)Cn1c-3cc2c(c1=O)COC(=O)[C@]2(O)CC`, for which the IC50 turned out to be 734 nM in assay [1], 2820 nM in assay [2], 746 nM in assay [4] and 2170 nM in assay [5].
As to `CC[C@@]1(O)C(=O)OCc2c1cc1n(c2=O)Cc2cc3c4c(ccc3nc2-1)OC(OCC(C)C)CC4` (some centres not stated), the IC50 in assay [1] turned out to be 387 nM; in assay [2], 344 nM; in assay [4] it was 471 nM; in assay [5] it was 1140 nM.
For `CC[C@@]1(O)C(=O)OCc2c1cc1n(c2=O)Cc2cc3c(CSC(C)(C)C)c(O)ccc3nc2-1` the same measures were 762 nM, 3140 nM, 1430 nM and 1410 nM.
In the case of `CCCCOC1CCc2c(ccc3nc4c(cc23)Cn2c-4cc3c(c2=O)COC(=O)[C@]3(O)CC)O1` (some centres not stated), the IC50 was 145 nM in assay [1], 772 nM in assay [2], 317 nM in assay [4] and 950 nM in assay [5]. The inhibition result in assay [3] was “inactive”.
As to `CC[C@@]1(O)C(=O)OCc2c1cc1n(c2=O)Cc2cc3c(CN(C)C)c(O)ccc3nc2-1` [TOPOTECAN HYDROCHLORIDE], the IC50 in assay [1] came out at 4210 nM; in assay [2], 2290 nM; in assay [4], 1880 nM; in assay [5], 2280 nM.
`CC[C@@]1(O)C(=O)OCc2c1cc1n(c2=O)Cc2cc3c4c(ccc3nc2-1)O[C@@H]1OCCC[C@H]1C4`: the IC50 in assay [1] was 266 nM; in assay [2], 255 nM; in assay [4], 204 nM; in assay [5] it was 1230 nM. In addition, the “Ratio IC50” value in assay [6] is recorded as 4.
With `CCSCc1c(O)ccc2nc3c(cc12)Cn1c-3cc2c(c1=O)COC(=O)[C@]2(O)CC`, the half-maximal inhibitory concentration (IC50) was determined as 595 nM in assay [1], 549 nM in assay [2], 282 nM in assay [4] and 2190 nM in assay [5].
In the case of `CC[C@@]1(O)C(=O)OCc2c1cc1n(c2=O)Cc2cc3c4c(ccc3nc2-1)O[C@@H]1OCC[C@H]1C4`, the IC50 in assay [1] amounted to 332 nM; in assay [2] it was 182 nM; in assay [4], 203 nM; in assay [5], 1710 nM. Further, the “Ratio IC50” value in assay [6] came out at 4. For the same compound, in assay [3], the inhibition entry was “inactive”.
For the compound `CC[C@@]1(O)C(=O)OCc2c1cc1n(c2=O)Cc2cc3c(CSC(C)C)c(O)ccc3nc2-1`, the IC50 in assay [1] stood at 351 nM; in assay [2], 993 nM; in assay [4], 406 nM; in assay [5], 994 nM. Moreover, the inhibition result in assay [3] was “Active”.
In the case of `CC[C@@]1(O)C(=O)OCc2c1cc1n(c2=O)Cc2cc3c(CSC)c(O)ccc3nc2-1`, the IC50 in assay [1] was 70400 nM; in assay [2], 2170 nM; in assay [4], 1220 nM; in assay [5], 19300 nM.

The IC50 is the concentration that gives 50% inhibition.
